Assay results published in US6489469B1, “Method for storing or transporting erythritol solution” (Nikken Chemicals Co., Ltd., priority 1999, dated 2002).

What was measured:
[1] = test system: Saccharomyces cerevisiae ATCC 9763; test: Viable Count of Saccharomyces cerevisiae ATCC 9763 in Erythritol Solution; assay type: cell-based
Description: (§1) Erythritol solutions of respective concentrations in the range of from 30 to 60% were prepared. To these were inoculated Staphylococcus aureus IFO 13276, Bacillus subtilis IFO 3134, and Escherichia coli IFO 3972 as bacteria, Candida albicans IFO 1549 and Saccharomyces cerevisiae ATCC 9763 as yeasts, Aspergillus niger IFO 6342, Aspergillus flavus IFO 6343, and Penicillium funiculosum IFO 6345 as fungi, respectively, in a population (concentration) of 10,000 cells/mL or more. After the inoculation, the solutions were stored at 30, 37, 45, 50, or 60° C., respectively, for 56 days and the number of viable cell was determined daily. The determination of the number of viable cell was performed by a method of coating 0.1 mL of appropriately diluted sample cultivation on an agar plate and cultivating and counting the number of viable cell (the number of colony) that grew after the cultivation.

[2] = test system: Aspergillus flavus IFO 6343; test: Viable Count of Aspergillus flavus IFO 6343 in Erythritol Solution; assay type: cell-based
Description: as §1

SMILES: OC[C@@H](O)[C@@H](O)CO [Erythritol Solution, erythritol]
- The Number of Viable Cell ([1]; 37° C., 30% w/w, Day 0): ≥ 10000 cells/mL
- The Number of Viable Cell ([1]; 37° C., 30% w/w, Day 3): ≥ 10000 cells/mL
- The Number of Viable Cell ([1]; 37° C., 30% w/w, Day 7): ≥ 10000 cells/mL
- The Number of Viable Cell ([1]; 37° C., 30% w/w, Day 14): ≥ 10000 cells/mL
- The Number of Viable Cell ([1]; 37° C., 30% w/w, Day 28): ≥ 10000 cells/mL
- The Number of Viable Cell ([1]; 37° C., 30% w/w, Day 56): 0 cells/mL
- The Number of Viable Cell ([1]; 37° C., 40% w/w, Day 0): ≥ 10000 cells/mL
- The Number of Viable Cell ([1]; 37° C., 40% w/w, Day 3): ≥ 10000 cells/mL
- The Number of Viable Cell ([1]; 37° C., 40% w/w, Day 7): ≥ 10000 cells/mL
- The Number of Viable Cell ([1]; 37° C., 40% w/w, Day 14): ≥ 10000 cells/mL
- The Number of Viable Cell ([1]; 37° C., 40% w/w, Day 28): 1130 cells/mL
- The Number of Viable Cell ([1]; 37° C., 40% w/w, Day 56): 0 cells/mL
- The Number of Viable Cell ([1]; 45° C., 30% w/w, Day 0): ≥ 10000 cells/mL
- The Number of Viable Cell ([1]; 45° C., 30% w/w, Day 3): 1480 cells/mL
- The Number of Viable Cell ([1]; 45° C., 30% w/w, Day 7): 0 cells/mL
- The Number of Viable Cell ([1]; 45° C., 30% w/w, Day 14): 0 cells/mL
- The Number of Viable Cell ([1]; 45° C., 30% w/w, Day 28): 0 cells/mL
- The Number of Viable Cell ([1]; 45° C., 30% w/w, Day 56): 0 cells/mL
- The Number of Viable Cell ([1]; 45° C., 40% w/w, Day 0): ≥ 10000 cells/mL
- The Number of Viable Cell ([1]; 45° C., 40% w/w, Day 3): 1440 cells/mL
- The Number of Viable Cell ([1]; 45° C., 40% w/w, Day 7): 0 cells/mL
- The Number of Viable Cell ([1]; 45° C., 40% w/w, Day 14): 0 cells/mL
- The Number of Viable Cell ([1]; 45° C., 40% w/w, Day 28): 0 cells/mL
- The Number of Viable Cell ([1]; 45° C., 40% w/w, Day 56): 0 cells/mL
- The Number of Viable Cell ([1]; 45° C., 50% w/w, Day 0): ≥ 10000 cells/mL
- The Number of Viable Cell ([1]; 45° C., 50% w/w, Day 3): 1600 cells/mL
- The Number of Viable Cell ([1]; 45° C., 50% w/w, Day 7): 0 cells/mL
- The Number of Viable Cell ([1]; 45° C., 50% w/w, Day 14): 0 cells/mL
- The Number of Viable Cell ([1]; 45° C., 50% w/w, Day 28): 0 cells/mL
- The Number of Viable Cell ([1]; 45° C., 50% w/w, Day 56): 0 cells/mL
- The Number of Viable Cell ([1]; 50° C., 30% w/w, Day 0): ≥ 10000 cells/mL
- The Number of Viable Cell ([1]; 50° C., 30% w/w, Day 3): 0 cells/mL
- The Number of Viable Cell ([1]; 50° C., 30% w/w, Day 7): 0 cells/mL
- The Number of Viable Cell ([1]; 50° C., 30% w/w, Day 14): 0 cells/mL
- The Number of Viable Cell ([1]; 50° C., 30% w/w, Day 28): 0 cells/mL
- The Number of Viable Cell ([1]; 50° C., 30% w/w, Day 56): 0 cells/mL
- The Number of Viable Cell ([1]; 50° C., 40% w/w, Day 0): ≥ 10000 cells/mL
- The Number of Viable Cell ([1]; 50° C., 40% w/w, Day 3): 0 cells/mL
- The Number of Viable Cell ([1]; 50° C., 40% w/w, Day 7): 0 cells/mL
- The Number of Viable Cell ([1]; 50° C., 40% w/w, Day 14): 0 cells/mL
- The Number of Viable Cell ([1]; 50° C., 40% w/w, Day 28): 0 cells/mL
- The Number of Viable Cell ([1]; 50° C., 40% w/w, Day 56): 0 cells/mL
- The Number of Viable Cell ([1]; 50° C., 50% w/w, Day 0): ≥ 10000 cells/mL
- The Number of Viable Cell ([1]; 50° C., 50% w/w, Day 3): 0 cells/mL
- The Number of Viable Cell ([1]; 50° C., 50% w/w, Day 7): 0 cells/mL
- The Number of Viable Cell ([1]; 50° C., 50% w/w, Day 14): 0 cells/mL
- The Number of Viable Cell ([1]; 50° C., 50% w/w, Day 28): 0 cells/mL
- The Number of Viable Cell ([1]; 50° C., 50% w/w, Day 56): 0 cells/mL
- growth of the microbes ([1]; temperature of 50° C. or more): prevented from growing
- time after which microbes died ([1]; temperature of 50° C. or more): 3 days
- The Number of Viable Cell ([2]; 45° C., 30% w/w, Day 0): ≥ 10000 cells/mL
- The Number of Viable Cell ([2]; 45° C., 30% w/w, Day 3): ≥ 10000 cells/mL
- The Number of Viable Cell ([2]; 45° C., 30% w/w, Day 7): ≥ 10000 cells/mL
- The Number of Viable Cell ([2]; 45° C., 30% w/w, Day 14): ≥ 10000 cells/mL
- The Number of Viable Cell ([2]; 45° C., 30% w/w, Day 28): 0 cells/mL
- The Number of Viable Cell ([2]; 45° C., 30% w/w, Day 56): 0 cells/mL
- The Number of Viable Cell ([2]; 45° C., 40% w/w, Day 0): ≥ 10000 cells/mL
- The Number of Viable Cell ([2]; 45° C., 40% w/w, Day 3): ≥ 10000 cells/mL
- The Number of Viable Cell ([2]; 45° C., 40% w/w, Day 7): ≥ 10000 cells/mL
- The Number of Viable Cell ([2]; 45° C., 40% w/w, Day 14): ≥ 10000 cells/mL
- The Number of Viable Cell ([2]; 45° C., 40% w/w, Day 28): 0 cells/mL
- The Number of Viable Cell ([2]; 45° C., 40% w/w, Day 56): 0 cells/mL
- The Number of Viable Cell ([2]; 45° C., 50% w/w, Day 0): ≥ 10000 cells/mL
- The Number of Viable Cell ([2]; 45° C., 50% w/w, Day 3): ≥ 10000 cells/mL
- The Number of Viable Cell ([2]; 45° C., 50% w/w, Day 7): ≥ 10000 cells/mL
- The Number of Viable Cell ([2]; 45° C., 50% w/w, Day 14): 0 cells/mL
- The Number of Viable Cell ([2]; 45° C., 50% w/w, Day 28): 0 cells/mL
- The Number of Viable Cell ([2]; 45° C., 50% w/w, Day 56): 0 cells/mL
- The Number of Viable Cell ([2]; 50° C., 30% w/w, Day 0): ≥ 10000 cells/mL
